A value given as a limit tells only on which side of the number the result lay.

The results in this text go back to patent publication US20190290631A1, “PHARMACEUTICAL COMPOSITION COMPRISING RAPAMYCIN OR DERIVATIVE THEREOF” (NIPPON KAYAKU KABUSHIKI KAISHA, priority 2016, published 2019).

The data set in a line: Purity of everolimus in ethanol solution. The format is physicochemical. The conditions noted are these: dissolved in ethanol, 3 hours/25° C. The procedure: However, since an aqueous solution of a coating agent needs to be used in order to prepare such a film-coated tablet, the aforementioned method cannot be applied to drugs having low chemical stability against aqueous solvents. […] For example, everolimus as a rapamycin derivative has physical properties, by which when it is dissolved in ethanol to prepare an ethanol solution thereof, its purity is decreased by 4% or more under conditions of 3 hours/25° C. As such, it is not preferable that a film coating technique involving the use of an aqueous solvent be applied, as a pharmaceutical formulation of light-resistant preparations, to a pharmaceutical product tablet comprising, as an active ingredient, rapamycin and a derivative thereof.

As for `CO[C@H]1C[C@@H]2CC[C@@H](C)[C@@](O)(O2)C(=O)C(=O)N2CCCC[C@H]2C(=O)O[C@H]([C@H](C)C[C@@H]2CC[C@@H](OCCO)[C@H](OC)C2)CC(=O)[C@H](C)/C=C(\C)[C@@H](O)[C@@H](OC)C(=O)[C@H](C)C[C@H](C)/C=C/C=C/C=C/1C` [everolimus, 40-O-(2-hydroxyethyl)rapamycin], the “decrease in purity in ethanol solution” value was at least 4%.
